Assay results from PMC3115942 (PLoS ONE, 2011).
Read-outs that look alike come from different tables or passages of the source.

Legend:
Dose tolerance in mice = type: in vivo
Description: MS-0022 tolerance was tested by daily injections of 200 mg/kg MS-0022 for 5 days in 7–8 week old male C57BL mice. Animal were observed daily for outward signs of toxicity (weight loss, fur ruffling, hunched posture).

[1] = Pharmacokinetics in mouse plasma; type: in vivo; conditions: 5 mg/kg; for Cmax / AUC(0-inf) / AUC(0-t) / half-life / k el: mouse plasma; for concentration at 5 min / concentration at 15 min / concentration at 30 min / concentration at 60 min / concentration at 120 min / concentration at 240 min: read-out: blood concentration
Description: For pharmacokinetic (PK) analysis, 5 mg/kg MS-0022 was given by IV, PO and IP administration to 7–8 week old male C57BL mice (mouse musculus), and blood was collected after 5, 15, 30, 60, 120, and 240 min, with n = 3. Animals were sacrificed and blood samples (∼0.5 mL each) were collected from the abdominal aorta into EDTA-containing tubes, centrifuged (2–8°C for ∼10 minutes at ∼10000 xg) and plasma harvested into single tubes for each animal and frozen (∼−70°C). Blood samples were analyzed by ChemDiv^'s bioanalytical department. The maximum concentration (Cmax), total drug exposure (the area under the curve to the last quantifiable concentration (AUClast) and as the AUClast value extrapolated to infinity (AUCinf), calculated as AUCinf = AUClast+C(t)last/Kel, where C(t)last is the last measurable concentration), half-life (T1/2) calculated as ln(2)/Kel and Kel calculated as the slope of the terminal linear portion of the concentration/time curve. The WinNonlin Professional 5.2 software (Pharsight Corp.) was used for the calculation of the PK parameters.

[2] = test system: Wnt signaling in HEK293 cells; experiment: Wnt luciferase reporter assay (SuperTop-luc) in HEK293; type: cell-based; conditions: HEK293, 10 and 20 µM, 24 hours
Description: Vectors were obtained from the following: GliBS-Luc reporter (gift from H. Sasaki), pBluescript (pBS) (Stratagene), FL-HA-GLI1 (Gli1) and Gli2-GFP (Gli2) (gifts from R. Toftgård), Super8XTOPFlash, and NFkB-luc (Panomics). 10 ng renilla luciferase (pRL-TK) (Promega) was used as a transfection control. HEK293 and NIH3T3 cells were seeded at 80,000 per well in 48-well plates on day 1, and were co-transfected on day 2 using a total of 0.4 µg plasmid per well mixed at 1∶3 in FUGENE6 according to manufacturer^'s instructions. On day 3, control medium and activating medium (50% L1 conditioned medium, 50% Shh conditioned medium or medium containing 10 ng/mL recombinant rcrTNF-α (R&D Systems)) +/− 10–20 µM MS-0022 were added, using DMSO as a control (the NFkB pathway inhibitor Bay11-7082 was used as a control in the NFkB assay). Samples were analyzed on day 4 or 5 using the Dual Luciferase assay kit according to manufacturer^'s instructions. Graphs display relative or fold reporter activity, and are calculated from a mean ratio of firefly reporter luminescence/pRL-TK luminescence with standard deviation error bars (n = 3). The experiments have been repeated with similar results.

SUIT-2 xenograft = experiment: SUIT-2 subcutaneous xenograft in CB17/SCID mice; type: in vivo
SUIT-2 cells = experiment: Passage growth assay, SUIT-2; type: cell-based, human; conditions: 5 µM, passage 2 and 3
Description: 20,000 cells were seeded per well in 6 well plates (triplicates) with DMSO or 5 µM MS-0022. Treatment medium was changed on day 3–5, and after 5–7 days the cells were trypsinized, re-suspended in medium and counted, before reseeding cells at 20,000/well for a subsequent passage. The average growth of MS-0022 treated cells was calculated as a percentage of the growth of the DMSO control at the end of each passage. Graphs display average of percent growth with standard deviation bars (n = 3).

[3] = test system: ciliary accumulation of Smo in Ptch−/− MEF; experiment: Immunostaining of Smo in primary cilia of Ptch−/− MEF; type: cell-based, mouse; conditions: 5 µM, 24 hours
Description: PTCH−/− MEF were seeded on pre-coated glass slides (1 hour coating with 0.1% Gelatin (G1393) and 0.003% Collagen (C8919) (Sigma-Aldrich) in PBS). 80% confluent cells were switched from 10% to 0.5% FBS in medium and cells were treated with DMSO or 5 µM MS-0022 for 24 hours in (n = 3) before subsequent immunofluorescent staining: Slides were fixed with 4% paraformaldehyde (Sigma-Aldrich), permeabilized for 10 min in 0.1% v/v Triton X-100 (Sigma-Aldrich) in PBS (PBT), and blocked with 10% w/v BSA (Saveen Werner) in PBT for 1 hour. Primary antibodies, mouse anti-acetylated tubulin (a-Tub) (Sigma-Aldrich (T7451), 1∶1000) goat anti-Smo (Santa Cruz Biotechnology (sc-6367), 1∶1000), and goat anti-GLI-1 (RnD systems (AF3455), 1∶500) were diluted in 0.5% w/v BSA in PBT and left on the slides over night at 4°C. Secondary antibodies donkey anti-goat IgG-Alexa 594 and donkey anti-mouse IgG-Alexa 488 (Invitrogen, both at 1∶500) were added in 0.5% w/v BSA in PBT for 1 hour. The slides were counterstained with DAPI (Roche, 1 mg/ml) in PBS. 3 random regions were imaged pr slide using a confocal LSM510 microscope (Carl Zeiss MicroImaging). The ratio of […] positive cilia was quantified manually or processed and analyzed using ImageJ to quantify the intensity of Smo and aTub for each cilium in the images (http://rsb.info.nih.goc/ij/). […]

[4] = 50 mg/kg daily PO, 18 days, vs control group

Cc1cccn2cc(-c3ccc(NC(=O)c4ccccc4Br)cc3)nc12 [MS-0022, 2-bromo-N-(4-(8-methylimidazo[1,2-a]pyridin-2-yl)phenyl)benzamide]
outward signs of toxicity or other side effects (Dose tolerance in mice; 200 mg/kg daily for 5 days): did not show any outward signs of toxicity
alterations in body weight (Dose tolerance in mice; daily IP injections of 200 mg/kg for 5 days): No statistically significant alterations
MTD at 5 days (Dose tolerance in mice; male, C57BL, mouse, in vivo, intraperitoneal, 200 mg/kg, mice): > 200 mg/kg
Cmax ([1]; male, C57BL, mouse, plasma, ip, IP, read-out: Cmax): 378 ng/mL
Cmax ([1]; male, C57BL, mouse, plasma, iv, IV, read-out: Cmax): 934 ng/mL
Cmax ([1]; male, C57BL, mouse, plasma, po, PO, read-out: Cmax): 912 ng/mL
concentration at 5 min ([1]; male, C57BL, mouse, plasma, IP): 30 ng/mL
concentration at 15 min ([1]; male, C57BL, mouse, plasma, IP): 261 ng/mL
concentration at 30 min ([1]; male, C57BL, mouse, plasma, IP): 378 ng/mL
concentration at 60 min ([1]; male, C57BL, mouse, plasma, IP): 158 ng/mL
concentration at 120 min ([1]; male, C57BL, mouse, plasma, IP): 56 ng/mL
concentration at 240 min ([1]; male, C57BL, mouse, plasma, IP): 15 ng/mL
concentration at 5 min ([1]; male, C57BL, mouse, plasma, IV): 934 ng/mL
concentration at 15 min ([1]; male, C57BL, mouse, plasma, IV): 712 ng/mL
concentration at 30 min ([1]; male, C57BL, mouse, plasma, IV): 626 ng/mL
concentration at 60 min ([1]; male, C57BL, mouse, plasma, IV): 620 ng/mL
concentration at 120 min ([1]; male, C57BL, mouse, plasma, IV): 253 ng/mL
concentration at 240 min ([1]; male, C57BL, mouse, plasma, IV): 73 ng/mL
concentration at 5 min ([1]; male, C57BL, mouse, plasma, PO): 468 ng/mL
concentration at 15 min ([1]; male, C57BL, mouse, plasma, PO): 912 ng/mL
concentration at 30 min ([1]; male, C57BL, mouse, plasma, PO): 461 ng/mL
concentration at 60 min ([1]; male, C57BL, mouse, plasma, PO): 437 ng/mL
concentration at 120 min ([1]; male, C57BL, mouse, plasma, PO): 180 ng/mL
concentration at 240 min ([1]; male, C57BL, mouse, plasma, PO): 51 ng/mL
bioavailability ([1]; male, C57BL, plasma, po, mouse, read-out: Per oral bioavailability): 98%
AUC(0-inf) ([1]; male, C57BL, IP): 437 ng·h/mL
AUC(0-t) ([1]; male, C57BL, IP): 417 ng·h/mL
half-life ([1]; male, C57BL, IP): 54.8 min
k el ([1]; male, C57BL, IP): 0.00021 s⁻¹
AUC(0-inf) ([1]; male, C57BL, IV): 1560 ng·h/mL
AUC(0-t) ([1]; male, C57BL, IV): 1460 ng·h/mL
half-life ([1]; male, C57BL, IV): 59.3 min
k el ([1]; male, C57BL, IV): 0.000195 s⁻¹
AUC(0-inf) ([1]; male, C57BL, PO): 1140 ng·h/mL
AUC(0-t) ([1]; male, C57BL, PO): 1070 ng·h/mL
half-life ([1]; male, C57BL, PO): 59.1 min
k el ([1]; male, C57BL, PO): 0.000195 s⁻¹
Cmax ([1]; IP): 377.7 ng/mL
Cmax ([1]; IV): 934.3 ng/mL
L1 medium induced Wnt signaling [2]: did not significantly block
animal weight, SUIT-2 xenograft mice (SUIT-2 xenograft; 50 mg/kg daily PO): unaffected
outwards signs of toxicity, SUIT-2 xenograft mice (SUIT-2 xenograft; 50 mg/kg daily PO): did not result in any outwards signs of toxicity
reduction in tumor volume, SUIT-2 xenograft (SUIT-2 xenograft; [4]): 27%
reduction in tumor weight, SUIT-2 xenograft (SUIT-2 xenograft; [4]): 36%
mouse (stromal) Gli1 mRNA in SUIT-2 tumors (SUIT-2 xenograft; after 7 days of treatment, 50 mg/kg PO, 50 mg/kg): reduced significantly
human or mouse Gli1, or Ptch1 mRNA levels in SUIT-2 tumors (SUIT-2 xenograft; endpoint of the experiment (18 days), 50 mg/kg PO): no statistical relevant reduction
serial passage growth reduction, SUIT-2 (SUIT-2 cells): not significant
ciliary accumulation of Smo [3]: effectively blocked ciliary accumulation of Smo
